{
  "source": "patent US11254640B2",
  "about": "“N-substituted indoles and other heterocycles for treating brain disorders” (The Regents of the University of California, priority 2019, dated 2022)",
  "tested_on": "C57/BL6J mice",
  "test": "Forced swim test (FST)",
  "type": "in vivo, mouse",
  "conditions": "24 h after drug administration; i.p., compounds 20 mg/kg, ketamine 3 mg/kg",
  "experimental": "Forced Swim Test. As increased cortical structural plasticity in the anterior parts of the brain mediates the sustained (>24 h) antidepressant-like effects of ketamine and play a role in the therapeutic effects of 5-HT2A agonists, the impact of IsoDMT analogs on forced swim test (FST) behavior (FIG. 14A and FIG. 14B) was evaluated. First, a pretest was used to induce a depressive phenotype. Compounds were administered 24 h after the pre-test, and the FST was performed 24 h and 7 d post drug administration.\nForced Swim Test (FST). Male C57/BL6J mice (9-10 weeks old at time of experiment) were obtained from the Jackson Lab and housed 4-5 mice/cage in a UCD vivarium following an IACUC approved protocol. After 1 week in the vivarium each mouse was handled for approximately 1 minute by a experimenter for 3 consecutive days leading up to the first FST. […] Immobility scores for all mice were determined after the pre-test and mice were randomly assigned to treatment groups to generate groups with similar average immobility scores to be used for the following two FST sessions. […] Experiments were video-recorded and manually scored offline. Immobility time—defined as passive floating or remaining motionless with no activity other than that needed to keep the mouse's head above water—was scored for the last 4 min of the 6 min trial.",
  "data": [
    {"molecule": "COc1ccc2c(ccn2C[C@@H](C)N(C)C)c1", "note": "[Example 59, (R)-1-(5-methoxy-1H-indol-1-yl)-N,N-dimethylpropan-2-amine]", "values": [
      {"measurement": "immobility in forced swim test", "result": "significantly reduced immobility"}
    ]}
  ]
}
